Assay results: PubChem BioAssay (NCI)
“And” between values parts separate entries of the source, which are not always exact repeats. Equal entries are not always repeated.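 Step 1: Grow cells in 96-well plates. Step 2: Expose to compound for 48 hours at 5 concentrations. Step 3: Interpolate endpoints linearly; if unreached, use highest concentration. Abbreviation: GI50, concentration required for 50% inhibition of growth. TGI: total growth inhibition.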

Assays:
Test in all cases: inhibition of tumour cell growth, NCI panel, 48 h
TK-10 renal = tested on: TK-10 renal
SF-295 CNS = tested on: SF-295 CNS
SK-MEL-2 melanoma = tested on: SK-MEL-2 melanoma
OVCAR-8 ovarian = tested on: OVCAR-8 ovarian
NCI-H522 lung = tested on: NCI-H522 lung
OVCAR-3 ovarian = tested on: OVCAR-3 ovarian
CCRF-CEM leukemia = tested on: CCRF-CEM leukemia
LOX IMVI melanoma = tested on: LOX IMVI melanoma
EKVX NSCLC = tested on: EKVX NSCLC
MDA-MB-231 breast = tested on: MDA-MB-231 breast

Row | SMILES | TGI (TK-10 renal) | TGI (SF-295 CNS) [µM] | TGI (SK-MEL-2 melanoma) | TGI (OVCAR-8 ovarian) | TGI (NCI-H522 lung) | TGI (OVCAR-3 ovarian) | TGI (CCRF-CEM leukemia) [µM] | TGI (LOX IMVI melanoma) | TGI (EKVX NSCLC) [µM] | GI50 (SF-295 CNS) | GI50 (SK-MEL-2 melanoma) [µM] | GI50 (OVCAR-8 ovarian) | GI50 (NCI-H522 lung) | GI50 (OVCAR-3 ovarian) [µM] | GI50 (CCRF-CEM leukemia) [µM] | GI50 (MDA-MB-231 breast) [µM] | TGI (MDA-MB-231 breast) | GI50 (LOX IMVI melanoma) [µM] | GI50 (TK-10 renal) [µM] | GI50 (EKVX NSCLC)
1 | Cc1c(C)c([N+](=O)[O-])c2c(c1N)C(=O)c1ccccc1C2=O | > 100 µM | > 100 | > 100 µM | > 100 µM | > 100 µM | > 100 µM | > 100 | > 100 µM | > 100 |  |  |  |  |  |  |  |  |  |  | 
2 | O=C1NC(=NCCc2ccc(Cl)cc2)S/C1=C\c1ccc2ncccc2c1 |  | > 25 | > 25 µM | > 25 µM | > 16 µM | > 25 µM | > 25 | > 25 µM |  | 24.4 µM | 8.28 | 12.9 µM | 3.41 µM | > 25 | 12.5 | > 25 | > 25 µM | > 20.9 |  | 
3 | O=C1c2cccc3cccc(c23)C(=O)N1CCCCCN1CCN(CCN=c2cc3n(-c4ccc(Cl)cc4)c4ccccc4nc-3cc2Nc2ccc(Cl)cc2)CC1 | > 50 µM | > 50 |  | > 50 µM |  | 3.4 µM | 25.2 | 29.8 µM | > 50 | 13 µM |  | 12 µM |  | 1.07 | 7.38 | 5.82 | 30.3 µM | 9.83 | 25 | 14.5 µM
4 | CCC[CH2][Sn-]([CH2]CCC)([CH2]CCC)[O]C(=O)C(C)C | 0.272 µM | 0.365 | 0.411 µM | 0.255 µM |  | 0.238 µM |  | 0.215 µM | 0.362 | 0.199 µM | 0.189 | 0.129 µM |  | 0.114 |  | 0.103 | 0.227 µM | 0.0816 | 0.141 | 0.154 µM
5 | O=C1CC23CCCCCCCCCCC2(C1)CC(=O)C3 (stereo unspecified) | > 100 µM | > 100 | 42.9 µM | > 100 µM | 45 µM | 41.5 µM | 44.4 |  | > 100 |  |  |  |  |  |  |  |  |  |  | 
6 | Cc1ccccc1NC(=O)CSc1nnc(-c2ccc(N=Cc3ccc(Cl)cc3)cc2)o1 | > 100 µM | > 100 | > 100 µM | > 100 µM |  |  | > 100 | > 100 µM | > 100 |  |  |  |  |  |  |  |  |  |  | 
7 | COC1(OC)C2(Cl)C3=CCCC=C3C1(Cl)C(Cl)=C2Cl | > 100 µM | 74.2 | 36 µM | > 100 µM | 33 µM | 43.8 µM | 42.4 | 30.2 µM | 71.5 |  |  |  |  |  |  |  |  |  |  | 
8 | Cc1cccc(C)c1NC(=O)C(=O)Cc1nc2ccccc2s1 | > 100 µM | > 100 | > 100 µM | > 100 µM | > 100 µM | > 100 µM | > 100 | > 100 µM | > 100 |  |  |  |  |  |  |  |  |  |  | 
9 | COC(=O)C1CC(c2ccc(OC)c(OC)c2)OC1=O (mixture of isomers) | > 100 µM | > 100 |  | > 100 µM | > 100 µM | > 100 µM | > 100 | > 100 µM | > 100 |  |  |  |  |  |  |  |  |  |  | 
10 | OCC(O)C(O)C(O)C(/C=N\Nc1ncnc2c(Br)cc(Br)cc12)=N/Nc1ncnc2c(Br)cc(Br)cc12 (stereo unspecified) | 28.1 µM and > 100 µM |  | 17.6 µM and > 100 µM | 28.3 µM and > 100 µM | 24.9 µM and > 100 µM | 16.5 µM and > 100 µM |  | 31.4 µM and > 100 µM |  | 2.46 µM and 10.9 µM |  | 11.7 µM and 3.76 µM | 10.1 µM and 3.6 µM |  |  |  | 15.7 µM and > 100 µM |  |  | 1.88 µM and 4.49 µM
11 | COc1cc2c(cc1C)NC(=O)/C2=C/c1ccnc2ccccc12 | > 50 µM | > 50 | > 50 µM | > 50 µM | 41.7 µM | > 50 µM |  |  | > 50 | 25.3 µM | 26.3 | 19.1 µM | 8.35 µM | 18.4 |  | 9.49 | 32.6 µM |  | 35.8 | 25.5 µM
12 | COc1cc(O)ccc1C(=S)SC | > 100 µM | > 100 | > 100 µM | > 100 µM | > 100 µM | > 100 µM |  |  | 46.3 |  |  |  |  |  |  |  | 88.4 µM |  |  | 
13 | COC(=O)C1C=CCC2CCCCC21N1CCCC1 (stereo unspecified) | > 100 µM | > 100 |  | > 100 µM | > 100 µM | > 100 µM | > 100 | > 100 µM | > 100 |  |  |  |  |  |  |  |  |  |  | 
14 | COc1cc2c(cc1OCCNC(=O)/C=C1\C[C@H]3C=Nc4cc(OCc5ccccc5)c(OC)cc4C(=O)N3C1)N=C[C@@H]1CCCN1C2=O | 36.7 µM | > 100 | 3.56 µM | 23.1 µM | 3.88 µM | 5.49 µM |  | 7.31 µM | 81.6 | 18.3 µM | 1.58 | 3.89 µM | 1.62 µM | 2.19 |  | 5.11 | 23.4 µM | 2.75 | 7.07 | 36.8 µM
15 | CC1=NN(c2cccc(Cl)c2)C(=O)/C1=C\c1cn(CC(O)CN2CCCCC2)c2ccccc12 (stereo unspecified) | 21.3 µM | 5.49 | 24.7 µM | 92.9 µM | 26.5 µM | 20.9 µM | > 100 |  | 25.9 | 2.24 µM | 10.3 | 6.93 µM | 10.9 µM | 7.98 | 3.38 | 3.32 | 15.8 µM |  | 7.51 | 11.1 µM
16 | COc1ccc(-c2ccc(C3CC(c4ccccc4)=NN3)o2)c([N+](=O)[O-])c1 (stereo unspecified) | 63.8 µM | > 100 |  | > 100 µM | > 100 µM | > 100 µM | 72.2 |  | > 100 | 28.6 µM |  | 51.2 µM | 58.4 µM | 29.8 | 23.2 |  |  |  | 22.1 | 49.2 µM
17 | O=c1c(Cc2ccc3c(c2)OCO3)nnc2sc(-c3cc(F)c(Cl)cc3Cl)nn12 | 65 µM | > 100 |  | > 100 µM | > 100 µM | > 100 µM | > 100 | > 100 µM |  | 72.5 µM |  | 36.9 µM | 33.4 µM | 38 | 33.9 | 44.9 | > 100 µM | 44.4 | 22.6 | 
18 | O=C1NC(O)n2c(=O)[nH]c(=O)n21 (stereo unspecified) | > 100 µM | > 100 | > 100 µM | > 100 µM | > 100 µM | > 100 µM | > 100 | > 100 µM | > 100 |  |  |  |  |  |  |  |  |  |  | 
